Measured values as given in PubChem BioAssay (NCI).
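Values below derive from 48-hour exposures of cells grown in 96-well plates, with endpoints linearly interpolated between the two concentrations bracketing the appropriate inhibition level. At the GI50, growth is halved. Definition used: TGI = concentration required for complete inhibition of growth.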

Key:
Experiment in all cases: growth of human tumour cells (NCI), 48 h
IGROV1 ovarian = test system: IGROV1 ovarian
MDA-MB-231 breast = test system: MDA-MB-231 breast
SNB-19 CNS = test system: SNB-19 CNS
EKVX NSCLC = test system: EKVX NSCLC
U251 CNS = test system: U251 CNS
ACHN renal = test system: ACHN renal
A549 NSCLC = test system: A549 NSCLC
UO-31 renal = test system: UO-31 renal
SK-OV-3 ovarian = test system: SK-OV-3 ovarian
MALME-3M melanoma = test system: MALME-3M melanoma
NCI/ADR-RES ovarian = test system: NCI/ADR-RES ovarian
HCC-2998 colon = test system: HCC-2998 colon
SF-539 CNS = test system: SF-539 CNS
HT29 colon = test system: HT29 colon
SW-620 colon = test system: SW-620 colon
HCT-15 colon = test system: HCT-15 colon
RXF 393 renal = test system: RXF 393 renal
MDA-MB-435 = test system: MDA-MB-435
SNB-75 CNS = test system: SNB-75 CNS
MCF7 breast = test system: MCF7 breast
NCI-H460 lung = test system: NCI-H460 lung
SF-268 CNS = test system: SF-268 CNS
SK-MEL-28 melanoma = test system: SK-MEL-28 melanoma
HOP-92 NSCLC = test system: HOP-92 NSCLC
OVCAR-8 ovarian = test system: OVCAR-8 ovarian
OVCAR-4 ovarian = test system: OVCAR-4 ovarian
K-562 leukemia = test system: K-562 leukemia
COLO 205 colon = test system: COLO 205 colon
NCI-H226 lung = test system: NCI-H226 lung
SN12C renal = test system: SN12C renal
OVCAR-5 ovarian = test system: OVCAR-5 ovarian
786-0 renal = test system: 786-0 renal
HS 578T breast = test system: HS 578T breast
T-47D breast = test system: T-47D breast
MOLT-4 leukemia = test system: MOLT-4 leukemia
CAKI-1 renal = test system: CAKI-1 renal
M14 melanoma = test system: M14 melanoma
HCT-116 colon = test system: HCT-116 colon
KM12 colon = test system: KM12 colon
UACC-62 melanoma = test system: UACC-62 melanoma
OVCAR-3 ovarian = test system: OVCAR-3 ovarian
SK-MEL-5 melanoma = test system: SK-MEL-5 melanoma
DU-145 prostate = test system: DU-145 prostate
UACC-257 melanoma = test system: UACC-257 melanoma
RPMI-8226 leukemia = test system: RPMI-8226 leukemia
HOP-62 NSCLC = test system: HOP-62 NSCLC
HL-60(TB) leukemia = test system: HL-60(TB) leukemia
SK-MEL-2 melanoma = test system: SK-MEL-2 melanoma
TK-10 renal = test system: TK-10 renal
PC-3 prostate = test system: PC-3 prostate
BT-549 breast = test system: BT-549 breast
SF-295 CNS = test system: SF-295 CNS
NCI-H23 lung = test system: NCI-H23 lung
A498 renal = test system: A498 renal
SR leukemia = test system: SR leukemia
LOX IMVI melanoma = test system: LOX IMVI melanoma

COc1ccc2c(c1)OCC1c3cc(OC)ccc3OC21 (configuration not stated)
GI50 (IGROV1 ovarian): 49.5 µM
TGI (IGROV1 ovarian): > 100 µM
GI50 (MDA-MB-231 breast): 46.4 µM
TGI (MDA-MB-231 breast): > 100 µM
GI50 (SNB-19 CNS): > 100 µM
TGI (SNB-19 CNS): > 100 µM
GI50 (EKVX NSCLC): 32.6 µM
TGI (EKVX NSCLC): > 100 µM
GI50 (U251 CNS): 58 µM
TGI (U251 CNS): > 100 µM
GI50 (ACHN renal): 53.1 µM
TGI (ACHN renal): > 100 µM
GI50 (A549 NSCLC): 89.1 µM
TGI (A549 NSCLC): > 100 µM
GI50 (UO-31 renal): 39 µM
TGI (UO-31 renal): > 100 µM
GI50 (SK-OV-3 ovarian): > 100 µM
TGI (SK-OV-3 ovarian): > 100 µM
GI50 (MALME-3M melanoma): > 100 µM
TGI (MALME-3M melanoma): > 100 µM
GI50 (NCI/ADR-RES ovarian): 32 µM
TGI (NCI/ADR-RES ovarian): > 100 µM
GI50 (HCC-2998 colon): 5.42 µM
TGI (HCC-2998 colon): 58 µM
GI50 (SF-539 CNS): 97.7 µM
TGI (SF-539 CNS): > 100 µM
GI50 (HT29 colon): 34.9 µM
TGI (HT29 colon): > 100 µM
GI50 (SW-620 colon): > 100 µM
TGI (SW-620 colon): > 100 µM
GI50 (HCT-15 colon): 44.9 µM
TGI (HCT-15 colon): > 100 µM
GI50 (RXF 393 renal): 58 µM
TGI (RXF 393 renal): > 100 µM
GI50 (MDA-MB-435): 50.8 µM
TGI (MDA-MB-435): > 100 µM
GI50 (SNB-75 CNS): 47.3 µM
TGI (SNB-75 CNS): > 100 µM
GI50 (MCF7 breast): 38.7 µM
TGI (MCF7 breast): > 100 µM
GI50 (NCI-H460 lung): 32.1 µM
TGI (NCI-H460 lung): > 100 µM
GI50 (SF-268 CNS): 50.5 µM
TGI (SF-268 CNS): > 100 µM
GI50 (SK-MEL-28 melanoma): 91.2 µM
TGI (SK-MEL-28 melanoma): > 100 µM
GI50 (HOP-92 NSCLC): 60.3 µM
TGI (HOP-92 NSCLC): > 100 µM
GI50 (OVCAR-8 ovarian): 80.3 µM
TGI (OVCAR-8 ovarian): > 100 µM
GI50 (OVCAR-4 ovarian): 39.2 µM
TGI (OVCAR-4 ovarian): > 100 µM
GI50 (K-562 leukemia): 56.7 µM
TGI (K-562 leukemia): > 100 µM
GI50 (COLO 205 colon): 38.2 µM
TGI (COLO 205 colon): > 100 µM
GI50 (NCI-H226 lung): 27.3 µM
TGI (NCI-H226 lung): > 100 µM
GI50 (SN12C renal): 74.3 µM
TGI (SN12C renal): > 100 µM
GI50 (OVCAR-5 ovarian): 80.1 µM
TGI (OVCAR-5 ovarian): > 100 µM
GI50 (786-0 renal): > 100 µM
TGI (786-0 renal): > 100 µM
GI50 (HS 578T breast): > 100 µM
TGI (HS 578T breast): > 100 µM
GI50 (T-47D breast): 35.4 µM
TGI (T-47D breast): > 100 µM
GI50 (MOLT-4 leukemia): 8.94 µM
TGI (MOLT-4 leukemia): 61.1 µM
GI50 (CAKI-1 renal): 29.5 µM
TGI (CAKI-1 renal): > 100 µM
GI50 (M14 melanoma): 39 µM
TGI (M14 melanoma): > 100 µM
GI50 (HCT-116 colon): 47.5 µM
TGI (HCT-116 colon): > 100 µM
GI50 (KM12 colon): 43.3 µM
TGI (KM12 colon): > 100 µM
GI50 (UACC-62 melanoma): 51 µM
TGI (UACC-62 melanoma): > 100 µM
GI50 (OVCAR-3 ovarian): 44.2 µM
TGI (OVCAR-3 ovarian): > 100 µM
GI50 (SK-MEL-5 melanoma): 28.4 µM
TGI (SK-MEL-5 melanoma): 86.1 µM
GI50 (DU-145 prostate): > 100 µM
TGI (DU-145 prostate): > 100 µM
GI50 (UACC-257 melanoma): > 100 µM
TGI (UACC-257 melanoma): > 100 µM
GI50 (RPMI-8226 leukemia): 21.5 µM
TGI (RPMI-8226 leukemia): > 100 µM
GI50 (HOP-62 NSCLC): 95 µM
TGI (HOP-62 NSCLC): > 100 µM
GI50 (HL-60(TB) leukemia): 4.93 µM
TGI (HL-60(TB) leukemia): > 100 µM
GI50 (SK-MEL-2 melanoma): 94.3 µM
TGI (SK-MEL-2 melanoma): > 100 µM
GI50 (TK-10 renal): > 100 µM
TGI (TK-10 renal): > 100 µM
GI50 (PC-3 prostate): 91.2 µM
TGI (PC-3 prostate): > 100 µM
GI50 (BT-549 breast): 34.4 µM
TGI (BT-549 breast): > 100 µM
GI50 (SF-295 CNS): 20.4 µM
TGI (SF-295 CNS): > 100 µM
GI50 (NCI-H23 lung): 36.2 µM
TGI (NCI-H23 lung): > 100 µM
GI50 (A498 renal): 63.1 µM
TGI (A498 renal): > 100 µM
GI50 (SR leukemia): 1440 nM
TGI (SR leukemia): 29.6 µM
GI50 (LOX IMVI melanoma): 45.9 µM
TGI (LOX IMVI melanoma): > 100 µM
